# Tested on: MM cell lines
# Experiment: effect of dasatinib on cell viability of MM cell lines
# Type: cell-based
# Conditions: Homo sapiens; in 8/15 MM cell lines tested
# Excerpt: FIG. 1 illustrates results obtained on the effect of dasatinib at varying concentrations on the cell viability of certain MM cell lines.
# Described herein are studies on the oral, multi-targeted kinase inhibitor dasatinib (BMS-354825, Bristol-Myers Squibb Co.) which inhibits BCR-ABL, SRC, c-KIT, PDGF-R, and ephrin (EPH) receptor kinases. Although BCR-ABL and c-KIT are not primary oncogenes driving MM proliferation and survival, dasatinib was studied because of (a) emerging data from our laboratory (CS Mitsiades, unpublished observations) on the expression patterns of EPH receptors in MM cell lines and primary tumor specimens; and (b) the roles of PDGF-R and SRC in tumor-microenvironment interactions, e.g., pericyte function in angiogenesis and osteoclast-mediated bone resorption, respectively.
# Dasatinib is active against human MM cells which are resistant to conventional or other investigational treatments. […] For those cell lines highly responsive to dasatinib, their IC50 was in a range of concentrations which are deemed clinically achievable levels (based on data derived from the ongoing clinical trials of this compound in other disease setting).
smiles,measurement,value
Cc1nc(Nc2ncc(C(=O)Nc3c(C)cccc3Cl)s2)cc(N2CCN(CCO)CC2)n1 [dasatinib],IC50,< 100 nM

# Source: patent US20100286090A1, “Treatment of Multiple Myeloma” (BRISTOL-MYERS SQUIBB COMPANY, priority 2005, published 2010)
